From patent US12122785B2, “Substituted pyridines, pyridazines, pyrimidines, and 1,2,4-triazines as TYK2 inhibitors” (Sudo Biosciences Limited, priority 2021, dated 2024)

Assays:
[1] = tested on: TYK2 pseudokinase (JH2); IL-23-stimulated HEK-Blue IL-23 cells; assay: HEK-Blue IL-23 reporter assay (STAT3-inducible SEAP) for profiling TYK2 pseudokinase (JH2) inhibition; format: cell-based; settings: 10 ng/mL human recombinant IL-23, SEAP readout, read-out: IL23 (TYK2 inhibitory activity, IC50)
In short: (§1)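 Pretreatment with diluted compound lasted 60 min, after which IL-23 (10 ng/mL) or IFNα (1 ng/mL), both human recombinant, drove STAT3 or STAT1 reporter activity for 22-24 h or 16-18 h respectively. QUANTI-Blue detected the secreted phosphatase.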

[2] = tested on: TYK2 pseudokinase (JH2); IFNα-stimulated HEK-Blue IFNα/β cells; assay: HEK-Blue IFNα/β reporter assay (STAT1-inducible SEAP) for profiling TYK2 pseudokinase (JH2) inhibition; format: cell-based; settings: 1 ng/mL human recombinant IFNα, SEAP readout, read-out: IFNα (TYK2 inhibitory activity, IC50)
In short: as §1

TYK2 kinase domain (JH1) = target: T1, TYK2 kinase domain (JH1) (Homo sapiens, UniProt P29597); assay: HTRF-based selectivity assay, TYK2 catalytic domain; format: biochemical; settings: 20 μM ATP
T1 construct: recombinant purified His or GST-tagged catalytic domain for each enzyme; made in house
T1 sequence (P29597 897-1176 limits assumed): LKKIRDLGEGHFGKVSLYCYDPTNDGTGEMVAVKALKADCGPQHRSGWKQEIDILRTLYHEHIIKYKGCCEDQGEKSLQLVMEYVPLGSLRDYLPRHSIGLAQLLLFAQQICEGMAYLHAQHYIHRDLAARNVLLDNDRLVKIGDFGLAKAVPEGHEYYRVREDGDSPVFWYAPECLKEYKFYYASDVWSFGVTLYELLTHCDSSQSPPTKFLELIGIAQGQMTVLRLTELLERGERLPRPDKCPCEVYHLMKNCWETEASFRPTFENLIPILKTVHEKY

JAK3 kinase domain (JH1) = target: T2, JAK3 kinase domain (JH1) (Homo sapiens, UniProt P52333); assay: HTRF-based selectivity assay, JAK3 catalytic domain; format: biochemical; settings: 2.12 μM ATP
T2 construct: recombinant purified His or GST-tagged catalytic domain for each enzyme; purchased Carna biosciences 08-046
T2 sequence (P52333 822-1111 limits assumed): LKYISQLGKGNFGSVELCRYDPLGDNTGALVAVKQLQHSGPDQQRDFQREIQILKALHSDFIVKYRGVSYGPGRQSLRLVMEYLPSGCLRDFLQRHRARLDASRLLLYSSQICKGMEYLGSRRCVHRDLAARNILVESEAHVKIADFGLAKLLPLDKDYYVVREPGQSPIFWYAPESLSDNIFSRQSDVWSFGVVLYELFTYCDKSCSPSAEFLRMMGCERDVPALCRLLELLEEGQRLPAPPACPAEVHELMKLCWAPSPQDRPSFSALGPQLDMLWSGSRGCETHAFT
In short: (§2)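 Recombinant His- or GST-tagged JAK catalytic domains (JAK1 80.6, JAK2 2.1, JAK3 171.8 ng/mL) preincubated with compound 5-20 min at RT, then ATP (JAK1 21.43, JAK2 14.7, JAK3 2.12 μM) plus peptide substrate (454.7, 200, 257.4 nM respectively) added. HEPES buffer with MgCl2, 60 min at 26.5 °C; HTRF read-out.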

JAK1 kinase domain (JH1) = target: T3, JAK1 kinase domain (JH1) (Homo sapiens, UniProt P23458); assay: HTRF-based selectivity assay, JAK1 catalytic domain; format: biochemical; settings: 21.43 μM ATP, read-out: JAK-JHI (IC50)
T3 construct: recombinant purified His or GST-tagged catalytic domain for each enzyme; made in house
T3 sequence (P23458 875-1153 limits assumed): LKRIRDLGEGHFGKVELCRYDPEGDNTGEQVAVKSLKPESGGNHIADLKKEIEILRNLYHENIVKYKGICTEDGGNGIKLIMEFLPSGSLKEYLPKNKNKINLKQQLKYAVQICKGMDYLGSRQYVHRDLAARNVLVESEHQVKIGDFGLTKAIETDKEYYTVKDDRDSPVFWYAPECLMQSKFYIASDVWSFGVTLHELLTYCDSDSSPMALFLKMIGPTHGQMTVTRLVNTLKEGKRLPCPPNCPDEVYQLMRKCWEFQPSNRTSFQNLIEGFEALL
In short: as §2

[3] = tested on: IL-2-stimulated HEK-Blue IL-2 reporter cells; assay: HEK-Blue IL-2 reporter assay (STAT5-inducible SEAP) for determining selectivity; format: cell-based; settings: 4 ng/mL human recombinant IL-2, 24 hours
In short: (§3)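 Cells were plated for 20-22 h, then pretreated with serially diluted compound for 60 min. They were stimulated for 24 h with 4 ng/mL human recombinant IL-2 or 50 ng/mL human recombinant IFNγ, and SEAP induction was read with QUANTI-Blue.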

JAK2 kinase domain (JH1) = target: T4, JAK2 kinase domain (JH1) (Homo sapiens, UniProt O60674); assay: HTRF-based selectivity assay, JAK2 catalytic domain; format: biochemical; settings: 14.7 μM ATP
T4 construct: recombinant purified His or GST-tagged catalytic domain for each enzyme; made in house
T4 sequence (O60674 849-1124 limits assumed): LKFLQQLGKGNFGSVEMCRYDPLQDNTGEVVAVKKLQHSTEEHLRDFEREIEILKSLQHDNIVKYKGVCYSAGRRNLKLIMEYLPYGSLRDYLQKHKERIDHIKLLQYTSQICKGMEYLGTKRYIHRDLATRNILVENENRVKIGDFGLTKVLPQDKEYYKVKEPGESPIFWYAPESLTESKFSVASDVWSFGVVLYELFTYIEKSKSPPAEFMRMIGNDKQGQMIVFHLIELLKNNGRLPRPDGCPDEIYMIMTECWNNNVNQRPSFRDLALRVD
In short: as §2

[4] = tested on: IFNγ-stimulated HEK-Blue IFNγ reporter cells; assay: HEK-Blue IFNγ reporter assay (STAT1-inducible SEAP) for determining selectivity; format: cell-based; settings: 50 ng/mL human recombinant IFNγ, 24 hours, read-out: IFN-γ SEAP selectivity assay IC50
In short: as §3

Structure (SMILES)	IC50 [1] [µM]	IC50 [2] [µM]	IC50 (TYK2 kinase domain (JH1)) [µM]	IC50 (JAK3 kinase domain (JH1)) [µM]	IC50 (JAK1 kinase domain (JH1)) [µM]	IC50 [3] [µM]	IC50 (JAK2 kinase domain (JH1)) [µM]	IC50 [4] [µM]
[2H]C([2H])([2H])NC(=O)c1nnc(NC(=O)C2CC2)cc1Nc1nccc2c1N(C)Cc1cn(C)nc1-2 [Compound 65, 6-(cyclopropanecarboxamido)-4-((2,5-dimethyl-4,5-dihydro-2H-pyrazolo[4,3-c][1,7]naphthyridin-6-yl)amino)-N-(methyl-d3)pyridazine-3-carboxamide]	< 0.03	< 0.03	> 1	> 1	> 1	> 1	> 1	0.03 to 0.3
[2H]C([2H])([2H])NC(=O)c1cnc(NC(=O)C2CC2)cc1Nc1nccc2c1N(C([2H])([2H])[2H])Cc1cn(C)nc1-2 [Compound 66, 6-(cyclopropanecarboxamido)-N-(methyl-d3)-4-((2-methyl-5-(methyl-d3)-4,5-dihydro-2H-pyrazolo[4,3-c][1,7]naphthyridin-6-yl)amino)nicotinamide]	< 0.03	< 0.03	> 1	> 1	> 1	> 1	> 1	0.3 to 1
